Paper PMC12955800 (ACS chemical neuroscience, 2021)
Entries after “also recorded” stand apart in the source; their conditions may differ.

Columns and labels:
A. suum ovijector tissue = test: Ascaris suum ovijector bioassay
[1] = system: C. elegans (acs-20 cuticle defective mutant); test: C. elegans body length assay; format: in vivo, Caenorhabditis elegans; conditions: 100 μM synthetic As-FLP-18A, 96 h, 20 °C, vs S-medium, n > 9 nematodes
[2] = system: C. elegans (acs-20 cuticle defective mutant); test: wMicroTracker motility assay; format: in vivo, Caenorhabditis elegans; conditions: 10 μM synthetic As-FLP-18A, M9, 12 h, n > 4 wells
[3] = synthetic As-FLP-18A, 10 μM, HBSS, 10 min

Row | Substance | effect on ovijector muscle (A. suum ovijector tissue; synthetic As-FLP-18A, 1 nM to 10 μM, 10 min) | effect on ovijector muscle (A. suum ovijector tissue; synthetic As-FLP-18A, 10 nM to 1 μM) | response type (RT) on ovijector (A. suum ovijector tissue; synthetic As-FLP-18A, 1 μM to 10 nM, 10 min) | effect on ovijector muscle (A. suum ovijector tissue; synthetic As-FLP-18A, 1 μM, RT-2-like) | preparations with RT-1 response (A. suum ovijector tissue; [3]) | preparations with RT-2 response (A. suum ovijector tissue; [3]) | C. elegans growth (body length) [1] | C. elegans motility (locomotory activity) [2] | effect on ovijector contractility (A. suum ovijector tissue; truncated synthetic peptide GFGDEMSMPGVLR, 10 μM)
1 | GFGDEMSMPGVLRF-NH2 [As-FLP-18A] | concentration dependent myoexcitatory effects | consistent excitatory effects | RT-2 responses only | transient muscle contraction followed by muscle paralysis | 64.2 % of preparations | 35.7 % of preparations | this effect was mirrored; also recorded: significantly reduced | significant inhibition of locomotion; also recorded: significantly reduced | –
2 | GFGDEMSMPGVLR [truncated As-FLP-18A] | – | – | – | – | – | – | – | – | lacks biological activity in A. suum muscle physiology assays
